ChEMBL document CHEMBL1201862, “PubChem BioAssay data set” (2004)
Blank lines part the entries; values can stand above or below the molecule they belong to. Activity calls are given as the source filed them.

Key:
Prothrombin = Prothrombin (Homo sapiens, UniProt P00734); test: Thrombin 1536 HTS Dose Response Confirmation. [Related pubchem assays: 1046 (Thrombin 1536 HTS; hits were confirmed in this assay)]; assay type: functional
Ion channel NompC = Ion channel NompC (Danio rerio, UniProt Q7T1G6); test: Fluorescence counterscreen assay for TRPML3 agonists: dose response cell-based high-throughput screening assay to identify agonists of the transient receptor potential channel N1 (TRPN1). [Related pubchem assays: 1526, 1424, 1448 ]; assay type: functional
Mucolipin-3 = target: T1, Mucolipin-3 (Homo sapiens, UniProt Q8TDD5); test: Dose response cell-based high-throughput screening assay for agonists of the transient receptor potential channel ML3 (TRPML3). [Related pubchem assays: 1526, 1424, 1448 ]; assay type: functional
T1 sequence (Q8TDD5 whole entry): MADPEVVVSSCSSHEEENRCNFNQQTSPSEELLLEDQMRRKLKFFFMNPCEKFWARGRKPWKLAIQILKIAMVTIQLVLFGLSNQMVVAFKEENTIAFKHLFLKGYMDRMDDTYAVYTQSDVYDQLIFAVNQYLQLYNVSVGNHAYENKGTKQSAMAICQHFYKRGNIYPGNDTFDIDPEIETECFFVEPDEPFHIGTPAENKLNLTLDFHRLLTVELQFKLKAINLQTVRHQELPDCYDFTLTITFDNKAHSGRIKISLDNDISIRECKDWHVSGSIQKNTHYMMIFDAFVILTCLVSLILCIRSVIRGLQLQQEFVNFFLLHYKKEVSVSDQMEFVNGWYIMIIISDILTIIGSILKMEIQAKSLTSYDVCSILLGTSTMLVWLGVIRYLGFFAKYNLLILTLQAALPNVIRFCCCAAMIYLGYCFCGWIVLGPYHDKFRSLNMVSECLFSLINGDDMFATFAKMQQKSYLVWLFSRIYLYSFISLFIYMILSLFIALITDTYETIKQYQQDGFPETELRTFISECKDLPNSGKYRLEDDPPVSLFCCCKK

[1] = Jurkat T cell cytotoxicity, dose response, cytotoxicity control for P. falciparum gametocyte viability project, luminescence (AID 1117277); assay type: functional, cell-based;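 note: potency reflects loss of cellular ATP meaning fewer viable cells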
[2] = P. falciparum late gametocyte killing, dose response, luminescence (AID 1117278); assay type: functional, cell-based;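 note: gametocytes exposed to compound for 24 hours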
[3] = cytotoxicity in HPDE-C7 cells, cell-based, fluorescence, HTS (AID 430); assay type: functional; conditions: Homo sapiens
[4] = cytotoxicity in KRAS-transformed pancreatic duct cells, primary screen, cell-based, fluorescence, HTS (AID 431); assay type: functional; conditions: Homo sapiens;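 note: cell line used: HPDE-C7K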

Ion channel NompC, sequence (Q7T1G6 whole entry): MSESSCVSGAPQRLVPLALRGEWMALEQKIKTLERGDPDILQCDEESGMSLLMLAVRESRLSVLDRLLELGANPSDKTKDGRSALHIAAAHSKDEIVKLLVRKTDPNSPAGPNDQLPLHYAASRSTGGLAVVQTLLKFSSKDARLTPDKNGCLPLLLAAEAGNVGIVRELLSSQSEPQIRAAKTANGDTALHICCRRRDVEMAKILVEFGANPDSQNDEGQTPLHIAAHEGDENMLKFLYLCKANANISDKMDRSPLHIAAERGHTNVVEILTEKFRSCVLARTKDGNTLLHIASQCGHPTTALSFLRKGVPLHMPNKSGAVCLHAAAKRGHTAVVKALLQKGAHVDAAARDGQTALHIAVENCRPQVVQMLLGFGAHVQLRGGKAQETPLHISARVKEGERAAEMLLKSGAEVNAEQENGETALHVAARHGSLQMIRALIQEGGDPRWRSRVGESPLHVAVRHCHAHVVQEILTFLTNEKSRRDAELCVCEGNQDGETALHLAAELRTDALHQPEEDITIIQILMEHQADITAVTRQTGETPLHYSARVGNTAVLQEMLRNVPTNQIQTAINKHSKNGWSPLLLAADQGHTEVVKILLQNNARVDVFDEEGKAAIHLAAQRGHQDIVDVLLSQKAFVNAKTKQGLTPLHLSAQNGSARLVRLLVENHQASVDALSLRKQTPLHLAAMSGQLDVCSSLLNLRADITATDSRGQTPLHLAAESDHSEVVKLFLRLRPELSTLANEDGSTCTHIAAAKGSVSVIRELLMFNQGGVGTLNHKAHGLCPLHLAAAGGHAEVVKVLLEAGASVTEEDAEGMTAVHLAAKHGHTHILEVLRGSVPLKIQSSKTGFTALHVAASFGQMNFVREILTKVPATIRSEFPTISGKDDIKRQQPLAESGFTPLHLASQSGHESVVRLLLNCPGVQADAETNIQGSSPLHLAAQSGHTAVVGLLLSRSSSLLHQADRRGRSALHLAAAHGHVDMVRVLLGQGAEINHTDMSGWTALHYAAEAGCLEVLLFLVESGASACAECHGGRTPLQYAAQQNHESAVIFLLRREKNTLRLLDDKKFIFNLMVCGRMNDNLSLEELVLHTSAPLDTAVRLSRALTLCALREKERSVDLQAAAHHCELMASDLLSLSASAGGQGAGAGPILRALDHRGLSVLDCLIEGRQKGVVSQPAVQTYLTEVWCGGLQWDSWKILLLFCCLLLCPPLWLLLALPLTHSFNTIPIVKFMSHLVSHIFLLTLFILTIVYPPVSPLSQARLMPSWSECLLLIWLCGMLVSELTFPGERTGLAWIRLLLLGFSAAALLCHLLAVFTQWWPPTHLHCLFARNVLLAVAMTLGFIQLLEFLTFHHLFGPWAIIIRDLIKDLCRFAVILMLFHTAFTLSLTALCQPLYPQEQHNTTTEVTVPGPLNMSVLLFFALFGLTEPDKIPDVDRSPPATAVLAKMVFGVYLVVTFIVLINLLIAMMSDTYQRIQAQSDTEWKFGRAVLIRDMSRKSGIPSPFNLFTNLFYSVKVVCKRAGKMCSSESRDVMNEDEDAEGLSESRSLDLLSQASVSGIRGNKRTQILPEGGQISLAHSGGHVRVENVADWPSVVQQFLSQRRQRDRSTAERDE

- IC50 (Prothrombin): 1.69 µM (active)
Structure (SMILES): Cc1ccc2c(c1)CC1(CN2C)C(=O)OC(C)(C)OC1=O

- IC50 (Prothrombin): 2.82 µM (active)
Structure (SMILES): O=C(CC(Nc1ccc(F)cc1)C(=O)OCC(=O)c1cccs1)c1ccccc1 (centres undefined)

- EC50 (Ion channel NompC): > 29.9 µM (not active)
- EC50 (Mucolipin-3): 4.75 µM (active)
Structure (SMILES): COc1ccc(S(=O)(=O)N(CC(=O)N2CCOCC2)c2cc(Cl)ccc2OC)cc1OC

- EC50 (Ion channel NompC): > 29.9 µM (not active)
- EC50 (Mucolipin-3): 5.11 µM (active)
Structure (SMILES): Cc1ccccc1N1CCN(S(=O)(=O)c2ccccc2)CC1

Structure (SMILES): O=C(c1ccco1)N1CCN(C(=O)C2c3ccccc3Oc3ccccc32)CC1
- IC50 [1]: 64.4 µM (inactive)
- IC50 [2]: > 109 µM (inactive)

Structure (SMILES): CCCCOc1cccc(C(=O)Nc2ccc(N3CCN(CC)CC3)cc2)c1
- EC50 [3]: > 20 µM (not active)
- EC50 [4]: > 20 µM (not active)

- EC50 (Ion channel NompC): > 29.9 µM (not active)
- EC50 (Mucolipin-3): 1.77 µM (active)
Structure (SMILES): Cc1cc(C)c(C2=NOC3C4CCC(C4)C23)c(C)c1 (centres undefined)

Structure (SMILES): CN(C1CCS(=O)(=O)C1)S(=O)(=O)c1ccccc1 (centres undefined)
- IC50 [1]: > 83.3 µM (inactive)
- IC50 [2]: > 109 µM (inactive)
